# According to US12357596B2, “Compounds for prevention and treatment of obesity and related disorders” (ABREXA PHARMACEUTICALS, INC., priority 2019, dated 2025):
# Assay: 28-day once-daily oral gavage toxicity study with 14-day recovery (body weight, food consumption, clinical and anatomic pathology)
# Assay type: in vivo
# Conditions: for Decrease of group mean food consumption compared to Group 1 controls: Days 21 to 28
# Description: J147 or vehicle was administered once daily to Sprague-Dawley rats via oral gavage for 28 consecutive days at a daily dose of 0, 30, 100 or 300 mg/kg. J174 was prepared in a vehicle formulation comprising 5% ethanol, 5% DMSO and 90% corn oil (v/v/v). Certified rodent diet and water was available ad libitum. Groups 1-4 contained 10 animals/sex/group. Groups 1 (control) and 4 (high dose) also included an additional 5 animals/sex/group for use as recovery animals. The recovery animals were maintained on study for a 14-day postdosing recovery period. Animals in Groups 1-4 were monitored for morbidity and mortality, clinical signs, detailed clinical observations, body weight, food consumption, ophthalmologic parameters, neurobehavioral assessment consisting of a Functional Observational Battery (FOB) and a motor activity test, hematology, coagulation, serum chemistry, and urinalysis parameters. Postmortem assessment included necropsy, measurement of selected organ weights, and microscopic evaluation of a standard set of tissues. Plasma samples for bioanalysis were collected on Days 1 and 28 from satellite toxicokinetic animals in Groups 5 through 8. Animals in these groups were euthanized following the last blood sampling and carcasses were discarded without examination. The study protocol is shown below in Table 1.
# [1] = male rats, 30 mg/kg/day, Day 14 → 21
# [2] = male rats, 30 mg/kg/day, Day 21 → 28
# [3] = male rats, 30 mg/kg/day, Day −1 → 7
# [4] = male rats, 100 mg/kg/day, Day 7 → 14
# [5] = male rats, 100 mg/kg/day, Day 14 → 21
# [6] = male rats, 100 mg/kg/day, Day 21 → 28
# [7] = male rats, 100 mg/kg/day, Day 28
# [8] = male rats, 100 mg/kg/day, Day −1 → 7
# [9] = male rats, 300 mg/kg/day, Day 7 → 14
# [10] = male rats, 300 mg/kg/day, Day 14 → 21
# [11] = male rats, 300 mg/kg/day, Day 21 → 28
# [12] = male rats, 300 mg/kg/day, Day 28
# [13] = male rats, 300 mg/kg/day, Day −1 → 7
# [14] = rats, both sexes, 300 mg/kg/day
# [15] = rats, both sexes, 100 and 300 mg/kg/day
smiles,measurement,setting,value
COc1cccc(/C=N/N(C(=O)C(F)(F)F)c2ccc(C)cc2C)c1 [J147],Mean Bodyweight Gain,[1],39.61 g
same,Mean Food Consumption,[1],25.03
same,Mean Bodyweight,"male rats, 30 mg/kg/day, Day 21",430.90 g
same,Mean Bodyweight Gain,[2],34.51 g
same,Mean Food Consumption,[2],25.13
same,Mean Bodyweight,"male rats, 30 mg/kg/day, Day 28",465.41 g
same,Mean Bodyweight,"male rats, 30 mg/kg/day, Day −1 (pre-dose)",285.27 g
same,Mean Bodyweight Gain,[3],53.64 g
same,Mean Food Consumption,[3],23.90
same,Mean Bodyweight Gain,"male rats, 30 mg/kg/day, Day −1 → 28",180.14 g
same,Mean Bodyweight,"male rats, 30 mg/kg/day, Day −2 (pre-dose)",278.60 g
same,Mean Bodyweight,"male rats, 100 mg/kg/day, Day 7",335.34 g
same,Mean Bodyweight Gain,[4],41.14 d^2 g
same,Mean Food Consumption,[4],21.47 dd^2
same,Mean Bodyweight,"male rats, 100 mg/kg/day, Day 14",376.48 g
same,Mean Bodyweight Gain,[5],33.50 g
same,Mean Food Consumption,[5],23.65
same,Mean Bodyweight,"male rats, 100 mg/kg/day, Day 21",409.98 g
same,Mean Bodyweight Gain,[6],26.89 g
same,Mean Food Consumption,[6],23.73
same,Decrease of group mean body weight compared to Group 1 controls,[7],5.9%
same,Mean Bodyweight,[7],436.87 g
same,Mean Bodyweight,"male rats, 100 mg/kg/day, Day −1 (pre-dose)",286.67 g
same,Mean Bodyweight Gain,[8],48.67 g
same,Mean Food Consumption,[8],23.68
same,Mean Bodyweight Gain,"male rats, 100 mg/kg/day, Day −1 → 28",150.20 g
same,Mean Bodyweight,"male rats, 100 mg/kg/day, Day −2 (pre-dose)",278.57 g
same,Decrease of group mean food consumption compared to Group 1 controls,"male rats, 100 mg/kg/day",4.9%
same,Levels of urinary ketones,"male rats, 300 mg/kg/day",increased
same,Mean Food Consumption,"male rats, 300 mg/kg/day for 28 days, Day 28 → 35 (recovery)",26.98
same,Mean Bodyweight Gain,"male rats, 300 mg/kg/day for 28 days, Day 28 → 42 (recovery)",50.60 g
same,Mean Bodyweight,"male rats, 300 mg/kg/day for 28 days, Day 35 (recovery)",415.68 dd^3 g
same,Mean Food Consumption,"male rats, 300 mg/kg/day for 28 days, Day 35 → 42 (recovery)",28.99
same,Mean Bodyweight,"male rats, 300 mg/kg/day for 28 days, Day 42 (recovery)",446.14 d^4 g
same,Mean Bodyweight,"male rats, 300 mg/kg/day, Day 7",321.93 dd^2 g
same,Mean Bodyweight Gain,[9],28.89 dd^3 g
same,Mean Food Consumption,[9],20.24 dd^2
same,Mean Bodyweight,"male rats, 300 mg/kg/day, Day 14",350.83 dd^2 g
same,Mean Bodyweight Gain,[10],21.21 dd^3 g
same,Mean Food Consumption,[10],21.50 dd^2
same,Mean Bodyweight,"male rats, 300 mg/kg/day, Day 21",372.04 dd^2 g
same,Mean Bodyweight Gain,[11],16.71 dd^3 g
same,Mean Food Consumption,[11],20.78 dd^2
same,Decrease of group mean body weight compared to Group 1 controls,[12],16.2%
same,Mean Bodyweight,[12],388.75 dd^2 g
same,Mean Bodyweight,"male rats, 300 mg/kg/day, Day −1 (pre-dose)",287.50 g
same,Mean Bodyweight Gain,[13],34.43 dd^3 g
same,Mean Food Consumption,[13],19.83 dd^2
same,Mean Bodyweight Gain,"male rats, 300 mg/kg/day, Day −1 → 28",101.25 dd^3 g
same,Mean Bodyweight,"male rats, 300 mg/kg/day, Day −2 (pre-dose)",278.97 g
same,Decrease of group mean food consumption compared to Group 1 controls,"male rats, 300 mg/kg/day",16.7%
same,Mean serum triglyceride concentrations,"male rats, 100 and 300 mg/kg/day",Decreased
same,Group mean weight gain from Day −1 to 28,"male rats, Group 2 (30 mg/kg/day)",180 grams
same,Group mean weight gain from Day −1 to 28,"male rats, Group 3 (100 mg/kg/day)",150 grams
same,Group mean weight gain from Day −1 to 28,"male rats, Group 4 (300 mg/kg/day)",101 grams
same,Effects on serum triglyceride concentrations and red cell mass at the end of the 14-day recovery period,rats previously administered 300 mg/kg/day for 28 days,persisted
same,Alterations considered related to test article administration,"rats, 30 mg/kg/day",no alterations
same,"Organ weight, macroscopic or microscopic findings after recovery","rats, 300 mg/kg/day, Day 43 following 2-week treatment-free recovery","no J147-related organ weight, macroscopic or microscopic findings"
same,Recovery of body weight and body weight gain,"rats, 14-day recovery period",Full recovery
same,Motor activity portion of the Functional Observational Battery (FOB),"rats, Day 1, males at all dose levels, females at 100 and 300 mg/kg/day, not considered adverse",general decrease in activity
same,Subacute perivascular inflammation in the liver (microscopic),[14],noted
same,Thymic lymphoid depletion,[14],noted
same,lowest-observed-adverse-effect-level (LOAEL),"rats, both sexes, 28-day oral gavage",100 mg/kg/day
same,"Body weight, body weight gain, and food consumption",[15],decreased
same,Food consumption compared to Group 1 controls,[15],decreased
same,Group mean thymus weights,[15],Decreases
same,Hepatocellular hypertrophy (microscopic),[15],seen
same,Prothrombin time,"rats, both sexes, all dose levels",decreased
same,Mean platelet and reticulocyte counts,"rats, end of 28-day treatment, all dose levels, both sexes",increased
same,"Mean red blood cell counts, hematocrit, and hemoglobin values","rats, end of 28-day treatment, males at all dose levels, females at 100 and 300 mg/kg/day",decreased
same,Terminal necropsy findings,"rats, one or two animals at 300 mg/kg/day",enlarged liver and small thymus
same,J147-related effects on body weight and food consumption following cessation of treatment,"rats, recovery period",reversible
same,Noteworthy clinical observations during the 28-day treatment period,"rats, some animals of both sexes, 300 mg/kg/day",soft feces
same,Incidence of single cell necrosis of acinar cells in the pancreas,"rats, both sexes at 300 mg/kg/day, males at 100 mg/kg/day",increased
same,Mean serum glucose concentrations,"rats, males at 100 mg/kg/day, both sexes at 300 mg/kg/day",Decreased
same,Group mean liver weights,"rats, males at all dose levels, females at 100 and 300 mg/kg/day",increased
